Results as given in patent US12257367B2, “Biomaterials for biological tissue repair” (KONAN GAKUEN, priority 2019, dated 2025).

How the values were obtained:
[1] = test system: mouse myoblasts (C2C12 cells); test: Cytotoxicity test of Ac4ManNAz by WST-1 assay; format: cell-based
Description: In order to examine the cytotoxicity of the synthesized Ac4ManNAz, mouse myoblasts (C2C12 cells) were used to evaluate toxicity to cells by WST-1 assay. The cells were seeded in a 96-well plate at 1×10^4 cells/well, to which a predetermined amount of Ac4ManNAz dissolved in a DMEM medium (final concentrations of 0, 0.0001, 0.001, 0.01, 0.1 and 1 mM) was added to culture the resultant in a CO2 incubator at 37° C. for one day. To each well, 10 μL of a WST-1 solution (WST-1:1-Methoxy PMS=9:1) was added to allow reaction in the CO2 incubator for 2 hours. Thereafter, absorbance was determined with a microplate reader. Cell viability was calculated from the absorbance.

C2C12 cells = test: Azide modification of cell surface by sugar metabolism of Ac4ManNAz, detected with carboxyrhodamine 110 DBCO; format: cell-based, mouse
Description: C2C12 cells were cultured in a DMEM medium containing 100 μM of Ac4ManNAz for 3 days to allow biosynthesis of azide-modified sialic acid at the end of the glycan of the cell membrane protein via cell sugar metabolism reaction of Ac4ManNAz. The cultured cells were washed with PBS twice. To confirm whether an azide group was introduced, carboxyrhodamine 110 DBCO (final concentration 5 μM) was added to the medium and allowed to react in the CO2 incubator for an hour. Subsequently, the cells were washed with PBS twice, to which a live cell imaging buffer (composition of the solution: 140 mM NaCl, 2.5 mM KCl, 1.8 mM CaCl2), 1.0 mM MgCl2 and 20 mM HEPES pH 7.4) was added to observe the cells with a confocal microscope.

[2] = test system: mouse tissues (lung, cardiac muscle, skeletal muscle, kidney); test: Azide modification of mouse tissues by Ac4ManNAz administration and hydrogel fabrication using biological tissue; format: in vivo; conditions: intraperitoneal once a day for seven days
Description: 6 mg of Ac4ManNAz was dissolved in a mixed solvent of DMSO and PBS solution (58% DMSO) to prepare a Ac4ManNAz solution. 200 μL of the resulting Ac4ManNAz solution was intraperitoneally administered to a mouse (ICR, 5 weeks old, female) once a day for seven consecutive days for azide-modification of the mouse tissues. A week later, lung, cardiac muscle, skeletal muscle and kidney of the mouse were resected. The resected tissues were allowed to react with 100 μM of carboxyrhodamine 110 DBCO for an hour, then added with a PBS solution, vortexed and left to stand still for 10 minutes. This operation was repeated for 3 times. As control, tissues resected from a mouse that was not administered with the Ac4ManNAz solution were allowed to react with carboxyrhodamine 110 DBCO for an hour. […] In order to carry out gelation reaction using mouse tissues, the Ac4ManNAz solution was administered to a mouse in the same manner as described above and lung, brain, muscle tissue, kidney, heart and liver were resected from the mouse.

SMILES: CC(=O)OC[C@H]1OC(OC(C)=O)[C@@H](NC(=O)CN=[N+]=[N-])[C@@H](OC(C)=O)[C@@H]1OC(C)=O (some centres unmarked) [Ac4ManNAz]
- amount applicable without having toxicity to cells ([1]; WST-1): 5 to 100 µM
- cell viability ([1]; WST-1, all concentrations (0-1 mM), one day): ≥ 90%
- carboxyrhodamine 110-derived green fluorescence of cells (C2C12 cells; C2C12 cells cultured with 100 μM for 3 days, confocal microscope): strong green fluorescence was observed only on the surface of the cell membrane
- concentration that allows a maximum amount of azide groups to be introduced into the cell surface (fluorescence intensity plateau) (C2C12 cells; C2C12 cells, carboxyrhodamine 110 DBCO): 100 µM
- azide modification of tissues in living body (FITC-derived green fluorescence after bAlg-DBCO-FITC) [2]: green fluorescence was observed in all of the tissues
